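Dose response: 5 concentrations. Exposure: 48 h. Format: 96-well plates. Endpoint: linear interpolation; highest concentration if not reached. GI50 marks 50% less growth. TGI is the concentration that stops growth completely.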
Experiments:
Experiment in all cases: NCI tumour cell line growth inhibition, 48 h
NCI-H23 lung = system: NCI-H23 lung
OVCAR-5 ovarian = system: OVCAR-5 ovarian
OVCAR-3 ovarian = system: OVCAR-3 ovarian
T-47D breast = system: T-47D breast
CCRF-CEM leukemia = system: CCRF-CEM leukemia
HL-60(TB) leukemia = system: HL-60(TB) leukemia
UACC-62 melanoma = system: UACC-62 melanoma
UO-31 renal = system: UO-31 renal
DU-145 prostate = system: DU-145 prostate
HS 578T breast = system: HS 578T breast
NCI-H226 lung = system: NCI-H226 lung
SR leukemia = system: SR leukemia
786-0 renal = system: 786-0 renal
SF-268 CNS = system: SF-268 CNS
NCI-H460 lung = system: NCI-H460 lung
OVCAR-8 ovarian = system: OVCAR-8 ovarian
SN12C renal = system: SN12C renal
RXF 393 renal = system: RXF 393 renal
MDA-MB-231 breast = system: MDA-MB-231 breast
SF-539 CNS = system: SF-539 CNS
SK-MEL-2 melanoma = system: SK-MEL-2 melanoma
LOX IMVI melanoma = system: LOX IMVI melanoma
HT29 colon = system: HT29 colon
BT-549 breast = system: BT-549 breast
SK-MEL-28 melanoma = system: SK-MEL-28 melanoma
MALME-3M melanoma = system: MALME-3M melanoma
SF-295 CNS = system: SF-295 CNS
MDA-MB-468 breast = system: MDA-MB-468 breast
EKVX NSCLC = system: EKVX NSCLC
RPMI-8226 leukemia = system: RPMI-8226 leukemia
HOP-92 NSCLC = system: HOP-92 NSCLC
A549 NSCLC = system: A549 NSCLC
U251 CNS = system: U251 CNS
CAKI-1 renal = system: CAKI-1 renal
MOLT-4 leukemia = system: MOLT-4 leukemia
HCT-15 colon = system: HCT-15 colon
PC-3 prostate = system: PC-3 prostate
NCI-H522 lung = system: NCI-H522 lung
OVCAR-4 ovarian = system: OVCAR-4 ovarian
HOP-62 NSCLC = system: HOP-62 NSCLC
K-562 leukemia = system: K-562 leukemia
UACC-257 melanoma = system: UACC-257 melanoma
TK-10 renal = system: TK-10 renal
MDA-MB-435 = system: MDA-MB-435
M14 melanoma = system: M14 melanoma
HCT-116 colon = system: HCT-116 colon
SW-620 colon = system: SW-620 colon
KM12 colon = system: KM12 colon
SK-MEL-5 melanoma = system: SK-MEL-5 melanoma
MCF7 breast = system: MCF7 breast
IGROV1 ovarian = system: IGROV1 ovarian
SNB-75 CNS = system: SNB-75 CNS
ACHN renal = system: ACHN renal
SNB-19 CNS = system: SNB-19 CNS
HCC-2998 colon = system: HCC-2998 colon
COLO 205 colon = system: COLO 205 colon
SK-OV-3 ovarian = system: SK-OV-3 ovarian
A498 renal = system: A498 renal

Work on `Cc1ccc(-c2cc(-c3cc4ccccc4nc3Cl)[nH]c(=O)n2)cc1` yielded a GI50 (NCI-H23 lung) of 12.2 µM, a TGI (NCI-H23 lung) of 30.2 µM and a GI50 (OVCAR-5 ovarian) of 16.9 µM. For the same molecule, the TGI (OVCAR-5 ovarian) was 32.5 µM, the GI50 (OVCAR-3 ovarian) was 10.3 µM and the TGI (OVCAR-3 ovarian) was 22.5 µM. For the same molecule, the GI50 (T-47D breast) was 16.4 µM, the TGI (T-47D breast) was 77.3 µM and the GI50 (CCRF-CEM leukemia) was 3.94 µM. It also gave a TGI (CCRF-CEM leukemia) of 35.5 µM, a GI50 (HL-60(TB) leukemia) of 1.89 µM and a TGI (HL-60(TB) leukemia) of 14.6 µM. It also gave a GI50 (UACC-62 melanoma) of 14 µM, a TGI (UACC-62 melanoma) of 30 µM and a GI50 (UO-31 renal) of 10.4 µM. For the same molecule, the TGI (UO-31 renal) was 22.2 µM, the GI50 (DU-145 prostate) was 13.1 µM and the TGI (DU-145 prostate) was 26.9 µM. For the same molecule, the GI50 (HS 578T breast) was 13 µM, the TGI (HS 578T breast) was 83.4 µM and the GI50 (NCI-H226 lung) was 13.1 µM. The TGI (NCI-H226 lung) was 37.2 µM, the GI50 (SR leukemia) was 1.2 µM and the TGI (SR leukemia) was 4.33 µM. For the same molecule, the GI50 (786-0 renal) was 4.71 µM, the TGI (786-0 renal) was 17.5 µM and the GI50 (SF-268 CNS) was 13.8 µM. It also gave a TGI (SF-268 CNS) of 32.3 µM, a GI50 (NCI-H460 lung) of 10 µM and a TGI (NCI-H460 lung) of 29.3 µM. For the same molecule, the GI50 (OVCAR-8 ovarian) was 18.5 µM, the TGI (OVCAR-8 ovarian) was 76.8 µM and the GI50 (SN12C renal) was 15.8 µM. For the same molecule, the TGI (SN12C renal) was 33 µM, the GI50 (RXF 393 renal) was 14.6 µM and the TGI (RXF 393 renal) was 32.6 µM. For the same molecule, the GI50 (MDA-MB-231 breast) was 13.9 µM, the TGI (MDA-MB-231 breast) was 32.4 µM and the GI50 (SF-539 CNS) was 12.1 µM. It also gave a TGI (SF-539 CNS) of 24.7 µM, a GI50 (SK-MEL-2 melanoma) of 14.4 µM and a TGI (SK-MEL-2 melanoma) of 30.6 µM. It also gave a GI50 (LOX IMVI melanoma) of 8.43 µM, a TGI (LOX IMVI melanoma) of 23.9 µM and a GI50 (HT29 colon) of 16 µM. The TGI (HT29 colon) was 34.6 µM, the GI50 (BT-549 breast) was 2.73 µM and the TGI (BT-549 breast) was 7.87 µM. The GI50 (SK-MEL-28 melanoma) was 16.2 µM, the TGI (SK-MEL-28 melanoma) was 30.2 µM and the GI50 (MALME-3M melanoma) was 14.8 µM. It also gave a TGI (MALME-3M melanoma) of 29.1 µM, a GI50 (SF-295 CNS) of 16.9 µM and a TGI (SF-295 CNS) of 35.1 µM. For the same molecule, the GI50 (MDA-MB-468 breast) was 12.7 µM, the TGI (MDA-MB-468 breast) was 44.3 µM and the GI50 (EKVX NSCLC) was 17.6 µM. The TGI (EKVX NSCLC) was 54.8 µM, the GI50 (RPMI-8226 leukemia) was 3.17 µM and the TGI (RPMI-8226 leukemia) was 17.8 µM. The GI50 (HOP-92 NSCLC) was 2.73 µM, the TGI (HOP-92 NSCLC) was 14.5 µM and the GI50 (A549 NSCLC) was 22.1 µM. The TGI (A549 NSCLC) was > 100 µM, the GI50 (U251 CNS) was 9.95 µM and the TGI (U251 CNS) was 28.6 µM. It also gave a GI50 (CAKI-1 renal) of 11.9 µM, a TGI (CAKI-1 renal) of 26.5 µM and a GI50 (MOLT-4 leukemia) of 2.66 µM. It also gave a TGI (MOLT-4 leukemia) of 12.4 µM, a GI50 (HCT-15 colon) of 13 µM and a TGI (HCT-15 colon) of 45.1 µM. For the same molecule, the GI50 (PC-3 prostate) was 12 µM, the TGI (PC-3 prostate) was 37 µM and the GI50 (NCI-H522 lung) was 13.9 µM. The TGI (NCI-H522 lung) was 27.3 µM, the GI50 (OVCAR-4 ovarian) was 20.9 µM and the TGI (OVCAR-4 ovarian) was > 100 µM. The GI50 (HOP-62 NSCLC) was 14.2 µM, the TGI (HOP-62 NSCLC) was 31.5 µM and the GI50 (K-562 leukemia) was 2.61 µM. The TGI (K-562 leukemia) was 13.2 µM, the GI50 (UACC-257 melanoma) was 16.7 µM and the TGI (UACC-257 melanoma) was 35.7 µM. The GI50 (TK-10 renal) was 15.1 µM, the TGI (TK-10 renal) was 29.7 µM and the GI50 (MDA-MB-435) was 14.9 µM. The TGI (MDA-MB-435) was 31.5 µM, the GI50 (M14 melanoma) was 10.7 µM and the TGI (M14 melanoma) was 30.1 µM. It also gave a GI50 (HCT-116 colon) of 3.31 µM, a TGI (HCT-116 colon) of 14 µM and a GI50 (SW-620 colon) of 13.8 µM. It also gave a TGI (SW-620 colon) of 34.4 µM, a GI50 (KM12 colon) of 7.63 µM and a TGI (KM12 colon) of 24.8 µM. For the same molecule, the GI50 (SK-MEL-5 melanoma) was 17.7 µM, the TGI (SK-MEL-5 melanoma) was 33.7 µM and the GI50 (MCF7 breast) was 6.08 µM. The TGI (MCF7 breast) was 22.4 µM, the GI50 (IGROV1 ovarian) was 16 µM and the TGI (IGROV1 ovarian) was 37.2 µM. For the same molecule, the GI50 (SNB-75 CNS) was 11.4 µM, the TGI (SNB-75 CNS) was 40.2 µM and the GI50 (ACHN renal) was 16.3 µM. It also gave a TGI (ACHN renal) of 32.9 µM, a GI50 (SNB-19 CNS) of 11.3 µM and a TGI (SNB-19 CNS) of 23.9 µM. For the same molecule, the GI50 (HCC-2998 colon) was 15.3 µM, the TGI (HCC-2998 colon) was 29.4 µM and the GI50 (COLO 205 colon) was 18 µM. For the same molecule, the TGI (COLO 205 colon) was 38.8 µM, the GI50 (SK-OV-3 ovarian) was 29.2 µM and the TGI (SK-OV-3 ovarian) was > 100 µM. It also gave a GI50 (A498 renal) of 14.4 µM and a TGI (A498 renal) of 30.5 µM.

Source: PubChem BioAssay (NCI)
